Columns and labels:
Format in all cases: functional
Bacillus subtilis = assay: Antimicrobial activity against Bacillus subtilis after 24 hrs by disc diffusion method; also: test concentration or dose not given here
[1] = tested on: Radical scavenging activity; assay: Antioxidant activity against DPPH free radical assessed as compound able to consume half the initial amount of DPPH free radical by spectrophotometry; details: TDE = time-dependent effect
[2] = tested on: Radical scavenging activity; assay: Antioxidant activity against DPPH free radical assessed as compound able to consume half the initial amount of DPPH free radical after 30 to 60 mins by spectrophotometry
Staphylococcus aureus = assay: Antimicrobial activity against Staphylococcus aureus after 24 hrs by disc diffusion method; also: test concentration or dose not given here
Pseudomonas aeruginosa = assay: Antimicrobial activity against Pseudomonas aeruginosa after 24 hrs by disc diffusion method; also: test concentration or dose not given here
Escherichia coli = assay: Antimicrobial activity against Escherichia coli after 24 hrs by disc diffusion method; also: test concentration or dose not given here

Row | IC50 [2] | Structure (SMILES) | inhibition zone (IZ) (Bacillus subtilis) | Activity [1] | Activity [2] | inhibition zone (IZ) (Staphylococcus aureus) | inhibition zone (IZ) (Pseudomonas aeruginosa) | inhibition zone (IZ) (Escherichia coli)
1 | 1.4 µM | CC1=NC(=S)N(n2c(CCl)nc3ccccc3c2=O)C(=O)C1/N=N/c1ccc(O)c(O)c1 (centres undefined) | 27 mm | tde | Dose-dependent effect | 31.5 mm | 16 mm | 17.5 mm
2 | 8.3 µM | CC1=NC(=S)N(n2c(CCl)nc3ccccc3c2=O)C(=O)C1/N=N/c1cccc(Cl)c1O (centres undefined) | 31.5 mm | tde | Dose-dependent effect | 33.5 mm | 21.5 mm | 20.9 mm
3 | 3.5 µM | CC1=NC(=S)N(n2c(CCl)nc3ccccc3c2=O)C(=O)C1/N=N/c1cccc(C)c1O (centres undefined) | 36.5 mm | tde | Dose-dependent effect | 44.5 mm | 23.5 mm | 27.5 mm
4 | 5.1 µM | CC1=NC(=S)N(n2c(CCl)nc3ccccc3c2=O)C(=O)C1/N=N/c1ccc(C)cc1O (centres undefined) | 33 mm | tde | Dose-dependent effect | 39 mm | 22 mm | 25 mm
5 | 2.1 µM | CC1=NC(=S)N(n2c(CCl)nc3ccccc3c2=O)C(=O)C1/N=N/c1ccc(O)cc1O (centres undefined) | 24.5 mm | tde | Dose-dependent effect | 30 mm | 13.5 mm | 15.5 mm
6 | 8.6 µM | CC1=NC(=S)N(n2c(CCl)nc3ccccc3c2=O)C(=O)C1/N=N/c1ccc(O)c([N+](=O)[O-])c1 (centres undefined) | 20 mm | tde | Dose-dependent effect | 29 mm | 12 mm | 14 mm
7 | 7 µM | CC1=NC(=S)N(n2c(CCl)nc3ccccc3c2=O)C(=O)C1/N=N/c1ccc(Cl)cc1O (centres undefined) | 29 mm | tde | Dose-dependent effect | 33 mm | 18.5 mm | 20.5 mm
8 | 5.4 µM | CC1=NC(=S)N(n2c(CCl)nc3ccccc3c2=O)C(=O)C1/N=N/c1ccc(O)cc1 (centres undefined) | 18.5 mm | tde | Dose-dependent effect | 27 mm | 10 mm | 13.5 mm
9 | – | CC1(C)S[C@@H]2[C@H](NC(=O)[C@H](N)c3ccccc3)C(=O)N2[C@H]1C(=O)O [AMPICILLIN] | 40 mm | – | – | 36 mm | 20 mm | 28 mm
10 | – | CC1=NC(=S)N(n2c(CCl)nc3ccccc3c2=O)C(=O)C1/N=N/c1ccccc1 (centres undefined) | 16.2 mm | tde | Dose-dependent effect | 24.5 mm | 7 mm | 11.5 mm
11 | 3 µM | COc1ccc(/N=N/C2C(=O)N(n3c(CCl)nc4ccccc4c3=O)C(=S)N=C2C)cc1O (centres undefined) | 42.1 mm | tde | Dose-dependent effect | 47.5 mm | 28 mm | 30 mm
12 | 9.2 µM | O=C1O[C@H]([C@@H](O)CO)C(O)=C1O [ASCORBIC ACID] | – | – | – | – | – | –

— ChEMBL document CHEMBL1799998, “Exploration of antimicrobial and antioxidant potential of newly synthesized 2,3-disubstituted quinazoline-4(3H)-ones” (Bioorg Med Chem Lett, 2011)
